Usually AUC stands for the area under the concentration-time curve, a measure of exposure. Broadly, the Cmax is the peak of the concentration-time curve. By MRT is commonly meant a mean duration of stay, worked out from the concentration-time curve. The half-life is how long it takes for the measured level to halve.

Data set [1] is described as follows: Stability in plasma. Conditions: for stability: 37° C., 60 min. The format is in vitro ADME, human. How it is done:
(§1) For analysis of samples, two volumes of cold methanol-acetonitrile (50:50, v/v) were added to portions of plasma, culture medium, or cell extract. The preparations were mixed and then centrifuged to obtain clear supernatants, which were dried at room temperature by compressed air. The residues were dissolved in the mobile phase, and a portion was injected onto the HPLC column.
(§2) The HPLC equipment consisted of a Hewlett Packard 1050 ChemStation with a fluorescence detector (Agilent 100 series). […] The mobile phase was methanol:ammonium acetate buffer (87:13 v/v; 0.2 M; pH 5.8, adjusted with HCl). The flow rate was 1 ml/min. The column elute was monitored fluorometrically at an excitation wavelength of 232 nm and an emission wavelength of 418 nm. The amounts of test compounds present in samples were determined from the peak areas.
(§3) Samples of mouse, rat, dog, and human plasma were incubated at 37° C. with and without addition of NaF (2.5 mg/ml) and EDTA (1 mg/ml). To these preparations, 2-OMe antimycin A1, 2-OMe antimcyin A2, 2-OMe antimycin A3, or 2-OMe antimycin A5, dissolved in methanol, was added to final concentrations of 500 ng/ml. Portions of plasma, taken at selected times after addition of the 2-OMe antimycin analog, were extracted and analyzed.
Similarly, the stability of 2-OMe antimycin A1, 2-OMe antimycin A2, […] in the plasma from mice and humans was evaluated at −80° C. From these preparations, portions were analyzed immediately; other portions were stored at -80° C. and analyzed after 1, 2, and 4 weeks.

A short description of data set [2]: Stability in plasma. The format is in vitro ADME, rat. The settings on record: 37° C., 60 min, presence of NaF/EDTA. How it is done:
as §1, §2, §3

The subject of data set [3] is plasma proteins. The data set can be described thus: Binding to plasma proteins (ultrafiltration). It counts as in vitro ADME, mouse. The settings on record: presence of NaF+EDTA, 1000 ng/ml. The procedure: Solutions of 2-OMe antimycin A3 were diluted with plasma (dog or human) containing NaF+EDTA to final concentrations of 1.0 or 0.2 μg/ml. Controls were diluted with water to the same final concentrations. These preparations were incubated at 37° C. for 20 min, at which time portions were taken and placed in the sample reservoirs of Amicon Centrifree® ultrafiltration systems (Millipore Co., Bedford, Mass.). At 37° C., the filter systems were centrifuged until the reservoirs were dry. From each filtrate, portions were taken for analysis by HPLC. The amounts present were designated as “free drug” (F). The concentrations of the unfiltered solutions were also determined by triplicate analyses. This amount represented the “total drug” concentration (T). The percentage of 2-OMe antimycin A3 bound to plasma proteins was calculated by the following formula: % bound=((T−F)/T)×100

Data set [4] has as its system plasma proteins. The experiment in a line: Binding to plasma proteins (ultrafiltration). The format is in vitro ADME, rat. Conditions: presence of NaF+EDTA, 1000 ng/ml.
Data set [5] in a line: Pharmacokinetic evaluation in Fischer 344 rats. The format is in vivo, rat. Conditions: intravenous 0.25 mg/kg; for amount detectable in plasma: 2 hr after dosing; for amounts in the urine, livers, or kidneys: 24 hr after dosing. The procedure: Male Fischer 344 rats (five/group) were dosed via a lateral tail vein with either 2-OMe-A1 or 2-OMe-A3 (0.25 mg/kg) administered as a 1-min intravenous push. The dosing vehicle was the same as that used for mice. The dosing volume was 1.3 ml/kg. Blood samples were collected and analyzed. Further, samples of plasma, urine, livers, and kidneys were collected from rats kept in metabolism cages for 24 hr. To retard the breakdown of the test compounds, NaF+EDTA was present in the tubes used for collecting blood and urine and was added to tissue homogenates.
Pharmacokinetic values were derived with WinNonlin® software (Mountain View, Calif.).

The test system of data set [6] is TABX2S cells (over-expressing Bcl-xL). The experiment in a line: cells. The text has this:
Briefly, a DNA fragment encoding the full-length mouse BCl-xL cDNA was isolated from the plasmid PBS.BCL-xL (Tzung et al., Am. J. Path. 150:1985-1995, 1997, incorporated herein by reference in its entirety) by digestion with the restriction endonuclease EcoRI. This EcoRI fragment was cloned into the EcoRI site of the mammalian expression vector pSFFV (Fuhlbrigge et al., Proc. Nat. Acad. Sci. USA 85:5649-5653, 1988) in both sense and antisense orientations, to form expression plasmids pSFFV.Bcl-xL(sense) or pSFFV.Bcl-xL(antisense), respectively. The tumorigenic murine hepatocyte cell line TAMH was transfected by lipofection (Lipofectamine, Life Technologies, Rockville, Md., according to the manufacturer's recommendations) with the plasmids pSFFV.neo (the control), pSFFV.Bcl-xL(sense) or pSFFV.Bcl-xL(antisense). […] Transfectants were selected for the acquisition of neomycin resistance by growing cells in the presence of 750 μg/ml of G418. Bulk transfectants were cloned by limiting dilution and individual clones were screened by immunoblot analysis to determine the level of BCl-xL protein expression as described below.
Selected transfectants were then tested for whole cell sensitivity to several apoptotic agents. Transfected cells were cultured to reach approximately 80% confluency prior to plating an equal number of cells from selected clones on 12-well tissue culture plates. The transplanted cells were treated with the following apoptotic agents: 5 μM doxorubicin for 48 hours; 5 μM cisplatin for 48 hours; or with 200 U/ml tumor necrosis factor (TNF) plus 1 μg/ml actinomycin D for 18 hours. Cell viability was determined by trypan blue dye exclusion. The percentage of viable cells was calculated by the number of viable cells (treated with a particular apoptogenic agent) divided by the number in the control group (untreated).
TABX2S cells and TABX1A cells were also examined for the effects of various mitochondrial inhibitors. […] Azide was diluted from an aqueous stock solution. […] Controls received an equivalent concentration of diluent. At various time points after drug treatment, cells were trypsinized, and cell viability was determined by trypan blue dye exclusion. The number of viable cells were counted and normalized to control group (i.e., % control=number of viable cells (treated group)/number of viable cells (control group)×100).

Like-named read-outs stand apart in the source and are kept apart here.

Consider `CCCCCC[C@H]1C(=O)O[C@H](C)[C@H](NC(=O)c2cccc(NC=O)c2OC)C(=O)O[C@@H](C)[C@@H]1OC(=O)CC(C)C` [2-OMeA1, 2-methoxy antimycin A1], for which the stability entry in the data set “Stability in plasma [1]” (presence of NaF/EDTA) is given as “moderately stable”. Moreover, the “amounts remaining after 4 weeks” value in the data set “Stability in plasma [1]” (-80° C., presence of NaF/EDTA) was found to be 93%. Also, the “amounts remaining after 4 weeks” value in the data set “Stability in plasma [1]” (−80° C., absence of NaF/EDTA) was determined as 86%. In addition, the stability result in “Stability in plasma [2]” was “substantially stable”. For the same compound, in the data set on plasma proteins [3], the “Protein binding, Mouse” value was 99.0%. In the data set with plasma proteins [4], the “Protein binding, Rat” value is over 99.9%. In addition, in data set [5], the “amount detectable in plasma” value was “little or no”; the “amounts in the urine, livers, or kidneys” value is “little or no detectable amounts”; the area under the curve (AUC) is 47 ng·h/mL; the peak concentration (Cmax) was 970 ng/mL. In data set [5], this compound yielded an MRT of 3.3 min, a T1/2 of 2.3 min and a Vss of 0.29 mL/g.

Turning to antimycin A, the survival in data set [6] (2 μg/ml, supplemented with fructose, six hours) came to 33%. Besides, the “time until cell death readily apparent” value in data set [6] (after addition to the cell culture) is at most 2 h.

`CCCC[C@H]1C(=O)OC(C)[C@H](NC(=O)c2cccc(NC=O)c2OC)C(=O)O[C@@H](C)C1OC(=O)CC(C)C` (some centres unmarked) [2-OMeA3, Antimycin A3 methyl ether]: the stability entry in “Stability in plasma [1]” (presence of NaF/EDTA) is reported as “notable decreases in concentration”; in the data set “Stability in plasma [2]”, “largely stable”. The “amounts remaining after 4 weeks” value is recorded as 95% in “Stability in plasma [1]” (-80° C., presence of NaF/EDTA) and 73% in the data set “Stability in plasma [1]” (−80° C., absence of NaF/EDTA). Besides, in data set [6] (TABX2S vs TAMH.neo and TABX1A), the “cytotoxicity for cells over-expressing Bcl-xL vs control cells” value is “selective cytotoxicity”. Further, in the data set with plasma proteins [3], the “Protein binding, Mouse” value worked out at 99.1%. The “Protein binding, Rat” value in the data set on plasma proteins [4] is 99.8%. The “amount detectable in plasma” value in data set [5] is recorded as “little or no”. Also, the “amounts in the urine, livers, or kidneys” value in data set [5] is “little or no detectable amounts”. For the same compound, the half-life in data set [5] (male, Fischer 344, rat, plasma) came out at 1 min. Also, the exposure (AUC) in data set [5] (male, Fischer 344, rat, plasma, read-out: AUC) worked out at 18 ng·h/mL. Further, the Cmax in data set [5] (male, Fischer 344, rat, plasma, read-out: Cmax) was 920 ng/mL. Also, the MRT in data set [5] (male, Fischer 344, rat, plasma, read-out: MRT (converted)) is 1.4 min. In data set [5] (male, Fischer 344, rat, plasma, read-out: Vss), the Vd worked out at 0.37 L/kg.

(Values after patent US20050239873A1 (priority 1999, published 2005).)
